From patent US20240308996A1, “PYRIDOPYRIDINES AND DERIVATIVES THEREOF AS SELECTIVE KINASE INHIBITORS” (University of Sharjah, priority 2023, published 2024)

Columns and labels:
Format in all cases: cell-based
[1] = system: K-562; assay: NCI-60 cell line panel: K-562; design: TGI: unit not given here
Procedure: (§1) It was carried out at the NCI, Bethesda, MD, USA, utilizing their standard protocol.

[2] = system: MOLT-4; assay: NCI-60 cell line panel: MOLT-4; design: TGI: unit not given here; conditions: Leukemia
Procedure: as §1

[3] = system: RPMI-8226; assay: NCI-60 cell line panel: RPMI-8226; conditions: Leukemia
Procedure: as §1

[4] = system: HOP-62; assay: NCI-60 cell line panel: HOP-62; conditions: Non-Small Cell Lung Cancer
Procedure: as §1

[5] = system: HOP-92; assay: NCI-60 cell line panel: HOP-92; design: TGI: unit not given here; conditions: Non-Small Cell Lung Cancer
Procedure: as §1

[6] = system: NCI-H322M; assay: NCI-60 cell line panel: NCI-H322M; conditions: Non-Small Cell Lung Cancer
Procedure: as §1

[7] = system: NCI-H460; assay: NCI-60 cell line panel: NCI-H460; conditions: Non-Small Cell Lung Cancer
Procedure: as §1

[8] = system: NCI-H522; assay: NCI-60 cell line panel: NCI-H522; design: TGI: unit not given here; conditions: Non-Small Cell Lung Cancer
Procedure: as §1

[9] = system: HCT-116; assay: NCI-60 cell line panel: HCT-116; conditions: Colon Cancer
Procedure: as §1

[10] = system: SW-620; assay: NCI-60 cell line panel: SW-620; conditions: Colon Cancer
Procedure: as §1

[11] = system: SF-268; assay: NCI-60 cell line panel: SF-268; conditions: CNS Cancer
Procedure: as §1

[12] = system: SF-295; assay: NCI-60 cell line panel: SF-295; conditions: CNS Cancer
Procedure: as §1

[13] = system: SF-539; assay: NCI-60 cell line panel: SF-539; conditions: CNS Cancer
Procedure: as §1

[14] = system: LOX IMVI; assay: NCI-60 cell line panel: LOX IMVI; conditions: Melanoma
Procedure: as §1

[15] = system: M14; assay: NCI-60 cell line panel: M14; conditions: Melanoma
Procedure: as §1

[16] = system: MDA-MB-435; assay: NCI-60 cell line panel: MDA-MB-435; design: TGI: unit not given here; conditions: Melanoma
Procedure: as §1

[17] = system: OVCAR-4; assay: NCI-60 cell line panel: OVCAR-4; conditions: Ovarian Cancer
Procedure: as §1

[18] = system: SK-OV-3; assay: NCI-60 cell line panel: SK-OV-3; conditions: Ovarian Cancer
Procedure: as §1

[19] = system: CAKI-1; assay: NCI-60 cell line panel: CAKI-1; design: TGI: unit not given here; conditions: Renal Cancer
Procedure: as §1

[20] = system: TK-10; assay: NCI-60 cell line panel: TK-10; conditions: Renal Cancer
Procedure: as §1

[21] = system: UO-31; assay: NCI-60 cell line panel: UO-31; design: TGI: unit not given here; conditions: Renal Cancer
Procedure: as §1

[22] = system: PC-3; assay: NCI-60 cell line panel: PC-3; conditions: Prostate Cancer
Procedure: as §1

[23] = system: DU-145; assay: NCI-60 cell line panel: DU-145; conditions: Prostate Cancer
Procedure: as §1

[24] = system: T-47D; assay: NCI-60 cell line panel: T-47D; conditions: Breast Cancer
Procedure: as §1

[25] = system: MDA-MB-468; assay: NCI-60 cell line panel: MDA-MB-468; conditions: Breast Cancer
Procedure: as §1

[26] = system: HepG2; assay: MTT assay, HepG2 HCC cell line; conditions: Homo sapiens, 48 h, mean of triplicate assays ± SEM
Procedure: (§2) Two HCC cell lines (Hep3B and HepG2) were used for screening the antiproliferative activity of the synthesized compounds. The cell lines were obtained from the European Collection of Cell Cultures (ECACC, UK) and maintained in Dulbecco's Modified Eagle Medium (DMEM: Sigma-Aldrich) supplemented with 10% fetal bovine serum (FBS) and 1% penicillin/streptomycin and incubated at 37° C. in a 5% CO2 air atmosphere. In addition, WI-38 normal cell line was used to investigate the safety of these compounds.
MTT assay was conducted to calculate the IC50 of the compounds following the reported procedure . Briefly, the cells were seeded in 96-well tissue culture plates with a density of 5×10^4 cells/well and incubated overnight at 37° C. in a 5% CO2 air atmosphere. […] DMSO was used as a negative control. After 48 h, the media were aspirated, and replaced with media containing 0.5 mg/mL of MTT tetrazolium dye (Sigma-Aldrich) for 2 h at 37° C. Finally, the media were removed and 200 μL of DMSO was added to solubilize the formazan crystals. Absorbance was then measured at 570 nm using Varioskan Flash multimode plate reader (Thermo Scientific, Massachusetts, USA).

[27] = system: hepatocellular carcinoma cell lines; assay: Screening against HCC cell lines
Procedure: The target compounds were tested against hepatocellular carcinoma cell lines. Compounds 1j. 13a. 13b. 13c. […] The mean inhibition percentage values are illustrated in Table 9.
as §2
MTT assay was conducted to calculate the IC50 of the compounds following the reported procedure . Briefly, the cells were seeded in 96-well tissue culture plates with a density of 5×10^4 cells/well and incubated overnight at 37° C. in a 5% CO2 air atmosphere. After that, cells were treated with the newly synthesized compounds or sorafenib as a positive control. DMSO was used as a negative control. After 48 h, the media were aspirated, and replaced with media containing 0.5 mg/mL of MTT tetrazolium dye (Sigma-Aldrich) for 2 h at 37° C. Finally, the media were removed and 200 μL of DMSO was added to solubilize the formazan crystals. Absorbance was then measured at 570 nm using Varioskan Flash multimode plate reader (Thermo Scientific, Massachusetts, USA).

`CNC(=O)c1cc(-c2ccc(NC(=O)Nc3ccc(N4CCN(C)CC4)c(C(F)(F)F)c3)cc2)nc2cccnc12` [Compound 13b, N-Methyl-2-(4-(3-(4-(4-methylpiperazin-1-yl)-3-(trifluoromethyl)phenyl)ureido)phenyl)-1,5-naphthyridine-4-carboxamide] showed an IC50 ([1]; Homo sapiens, K562, Leukemia) of 2.12 µM, a TGI ([1]; Leukemia, total growth inhibition) of 5.35 and an IC50 ([2]; Homo sapiens) of 2.79 µM. For the same molecule, the TGI ([2]; total growth inhibition) was 14.9, the IC50 ([3]; Homo sapiens) was 3.85 µM and the TGI ([3]; total growth inhibition) was 25 µM. It also gave an IC50 ([4]; Homo sapiens) of 16.4 µM, a TGI ([4]; total growth inhibition) of 32.2 µM and an IC50 ([5]; Homo sapiens) of 6.54 µM. It also gave a TGI ([5]; total growth inhibition) of 100, an IC50 ([6]; Homo sapiens) of 15.6 µM and a TGI ([6]; total growth inhibition) of 29.8 µM. For the same molecule, the IC50 ([7]; Homo sapiens) was 3.19 µM, the TGI ([7]; total growth inhibition) was 10.2 µM and the IC50 ([8]; Homo sapiens) was 16.5 µM. For the same molecule, the TGI ([8]; total growth inhibition) was 31.1, the TGI ([9]; total growth inhibition) was 75.6 µM and the IC50 ([9]; Homo sapiens) was 4.09 µM. It also gave a TGI ([10]; total growth inhibition) of 4.62 µM, an IC50 ([10]; Homo sapiens) of 2.11 µM and a TGI ([11]; total growth inhibition) of 39.2 µM. The IC50 ([11]; Homo sapiens) was 17.5 µM, the TGI ([12]; total growth inhibition, unit assumed) was 36.9 µM and the IC50 ([12]; Homo sapiens) was 18 µM. The TGI ([13]; total growth inhibition) was 26.5 µM, the IC50 ([13]; Homo sapiens) was 13.6 µM and the IC50 ([14]; Homo sapiens) was 0.66 µM. The TGI ([14]; total growth inhibition) was 24.5 µM, the IC50 ([15]; Homo sapiens) was 1.79 µM and the TGI ([15]; total growth inhibition) was 3.71 µM. The IC50 ([16]; Homo sapiens) was 1.75 µM, the TGI ([16]; total growth inhibition) was 3.27 and the IC50 ([17]; Homo sapiens) was 15.7 µM. It also gave a TGI ([17]; total growth inhibition, in µM (unit assumed)) of 31.6, an IC50 ([18]; Homo sapiens) of 18.5 µM and a TGI ([18]; total growth inhibition) of 34.7 µM. For the same molecule, the IC50 ([19]; Homo sapiens) was 16.1 µM, the TGI ([19]; total growth inhibition) was 29.6 and the IC50 ([20]; Homo sapiens) was 18.5 µM. The TGI ([20]; total growth inhibition) was 33.2 µM, the IC50 ([21]; Homo sapiens) was 15.3 µM and the TGI ([21]; total growth inhibition) was 29.2. It also gave an IC50 ([22]; Homo sapiens) of 15.1 µM, a TGI ([22]; total growth inhibition) of 30.1 µM and an IC50 ([23]; Homo sapiens) of 17.6 µM. It also gave a TGI ([23]; total growth inhibition) of 35.6 µM, a TGI ([24]; total growth inhibition) of 43.4 µM and an IC50 ([24]; Homo sapiens, T47D) of 17 µM. For the same molecule, the TGI ([25]; total growth inhibition) was 32.9 µM, the IC50 ([25]; Homo sapiens) was 14.8 µM and the IC50 [26] was 1.48 ± 0.09 µM. The “inhibition activity against hepatocellular carcinoma cell lines compared with sorafenib” value [27] was “higher inhibition activity than sorafenib”.
